Reference: patent publication US9018248B2, “Fatty acid derivatives of catechins and methods of their use” (Genesis Group Inc., priority 2010, dated 2015)

Tests used:
[1] = Reducing power (Fe3+-Fe2+ transformation); details: test compounds 1 mM in 95% ethanol, ascorbic acid equivalents
Experimental: An ORAC (Oxygen Radical Absorbance Capacity) assay was carried out using a Fluostar Optima plate reader (BMG Labtech, Durham, N.C.) equipped with an incubator and two injector pumps. A modified method for lipophilic antioxidants was followed, in which randomly methylated cyclodextrin (RMCD) was used as water solubility enhancer, as described by Huang et al, J. Agric. Food Chem., 2002, 50, 1815-1821. Trolox standards (6.25-50 μM) and samples (0.25 μM) were dissolved in acetone/water (1:1, v/v) containing 7% RMCD. Fluorescein and […] [2,2′-azobis(2-aminopropane)dihydrochloride] were used as the probe and radical generator, respectively. […] Fluorescence was measured at an excitation wavelength of 485 nm and emission of 520 nm. […] (3b) Reducing Power The reducing power of EGCG and its derivatives (compounds 1a-1c) was determined according to Oyaizu (1986). […] The content was mixed well and the absorbance was recorded at 700 nm. Higher absorbance of the reaction mixture indicates greater reducing power. […] (3c) Metal Chelation The metal chelation capacity was measured following a procedure by Decker E. A. et al., J. Agric. […] The absorbance was measured afterwards at 562 nm. A blank without ferrozine was run for each compound, since the antioxidant-Fe^2+ complex gives a colour that might interfere with the absorbance reading. […] The spectrum was recorded after 1 min. […]

supercoiled pBR322 DNA = experiment: Hydroxyl radical-induced DNA scission; details: 1 μM test compounds, H2O2/Fe2SO4, 37° C., 1 hour, FIG. 2
Experimental: For hydroxyl radical-induced DNA oxidation, 2 μL of test compounds dissolved in ethanol were added into an Eppendorf tube and the solvent was evaporated under a nitrogen stream. To the tube 2 μL of distilled water were added, followed by thorough vortexing for 1 min. The following reagents were then added to the tube in the order as stated: 2 μL of PBS (pH7.4), 2 μL of supercoiled pBR322 DNA, 2 μL of H2O2 and 2 μL of Fe2SO4. The mixture (10 μL) containing 1 μM test compounds, 0.1M PBS, 10 μg/ml DNA, 0.2 mM H2O2 and 0.1 mM Fe2SO4 (final concentration/assay) was incubated at 37° C. for 1 hour.
After incubation, 1 μL of loading dye (0.25% bromophenol blue/0.25% xylene cyanol/50% glycerol) was added, and the whole mixture was loaded onto an agarose gel. […] The images were analyzed using AlphaEase stand-alone software (Alpha Innotech Co., San Leandro, Calif.) and the intensity or density of the bands (obtained from densitometer) was used as the indicator of concentration of the native (supercoiled) and nicked DNA fractions. Antioxidant activity was calculated as DNA retention according to the following equation: % retention=100×(native DNAsample/native DNAblank) where, DNAsample and DNAblank are normalized concentrations of native supercoiled DNA in total DNA for sample groups and blank, respectively. […]

| SMILES | Reducing power relative to ascorbic acid [1] | Antioxidant activity against hydroxyl radical-induced DNA scission (supercoiled pBR322 DNA) |
| --- | --- | --- |
| O=C(O[C@@H]1Cc2c(O)cc(O)cc2O[C@@H]1c1cc(O)c(O)c(O)c1)c1cc(O)c(O)c(O)c1 [EGCG, Epigallocatechin gallate, reference compound] | highest reducing power |  |
| CCC=CCC=CCC=CCC=CCC=CCCCC(=O)Oc1cc(C(=O)OC2Cc3c(O)cc(O)cc3OC2c2cc(OC(=O)CCCC=CCC=CCC=CCC=CCC=CCC)c(O)c(OC(=O)CCCC=CCC=CCC=CCC=CCC=CCC)c2)cc(OC(=O)CCCC=CCC=CCC=CCC=CCC=CCC)c1O (centres unmarked) [Compound 1b] |  | the most potent antioxidant among all |
